Patent publication US11318135B2 (priority 2020, dated 2022)
“Also recorded” adds a separate entry of the source. Read-outs that look alike come from different tables or passages of the source.

Columns and labels:
SARS-CoV-2 = assay type: cell-based, SARS-CoV-2 (nCoV-2019BetaCoV/Wuhan/WIV04/2019 strain)
SARS coronavirus = assay type: in vivo, A129 mice; conditions: for Death rate: once daily from 4 h to 144 h after challenge, 1*10^6 PFU; for Protection of SARS coronavirus-infected mice from death: intraperitoneal once a day from 4 hours after challenge, 50-200 mg/kg
Vero E6 cells = conditions: Vero E6, 48 h
EBOV-Zaire type [1] = conditions: virus titer in supernatant, Vero E6 cell line, read-out: half-inhibitory concentration (IC50); cited from earlier work
[2] = 300 mg/kg/d from day 6 to day 13, cited from earlier work
Vero C1008 cells = conditions: high concentration of 1.95 g/L; cited from earlier work
EBOV-Zaire type [3] = conditions: drug concentration of above 62.5 mg/L; cited from earlier work
[4] = cited from earlier work

NC(=O)c1nc(F)cnc1O [Favipiravir, 6-fluoro-3-hydroxypyrazine-2-carboxamide]
Reduction of viral RNA load in the cells (SARS-CoV-2): the inhibitory activity is dose-dependent | Inhibition of replication of the SARS-CoV-2 virus genome in the infected supernatant (SARS-CoV-2; at concentrations of 100 μM, 33 μM, 11.1 μM and 3.7 μM): could effectively inhibit | Reduction of viral nucleic acid load in cells infected by SARS-CoV-2 (SARS-CoV-2; at micromolar concentration level): can reduce the viral nucleic acid load | Death rate (SARS coronavirus; 50 mg/kg intraperitoneal): 100% | Death rate (SARS coronavirus; 100 mg/kg intraperitoneal): 50% | Death rate (SARS coronavirus; 200 mg/kg intraperitoneal): 0% | Protection of SARS coronavirus-infected mice from death (SARS coronavirus): can effectively protect mice; also recorded: the survival rate is dose-dependent | Protection of SARS coronavirus-infected mice from death (SARS coronavirus; listed as compound represented by Formula I): significant protective effect | Cell viability (% of vehicle control) (Vero E6 cells; 0.14 μM): 101.61 ± 0.74 % of vehicle control | Cell viability (% of vehicle control) (Vero E6 cells; 0.41 μM): 101.38 ± 3.85 % of vehicle control | Cell viability (% of vehicle control) (Vero E6 cells; 1.23 μM): 98.57 ± 1.90 % of vehicle control | Cell viability (% of vehicle control) (Vero E6 cells; 3.70 μM): 99.09 ± 4.91 % of vehicle control | Cell viability (% of vehicle control) (Vero E6 cells; 11.11 μM): 96.42 ± 4.77 % of vehicle control | Cell viability (% of vehicle control) (Vero E6 cells; 33.33 μM): 95.21 ± 4.43 % of vehicle control | Cell viability (% of vehicle control) (Vero E6 cells; 100 μM): 96.37 ± 1.26 % of vehicle control | IC50 (EBOV-Zaire type [1]): 67 µM | protection rate ([2]; challenge dose of 100% death of placebo group): 100% | body weight, glutamic-pyruvic transaminase, glutamic-oxalic transaminase, viremia [2]: improved significantly | Cytotoxicity to Vero C1008 cells (Vero C1008 cells): not cytotoxic | Inhibition of cytopathic effect (CPE) of EBOV-Zaire type (EBOV-Zaire type [3]): completely inhibit | mice protected from death ([4]; intragastric 300 mg/kg/d (2 times/d, 150 mg/kg per time) from 1 h after challenge for 14 days): 100% | body weight of the mice in the administration group ([4]; intragastric 300 mg/kg/d for 14 days): significantly improved
